Experimental data taken from patent publication US11807612B2, “Heterocyclic compound and salt thereof, and luminescent substrate composition” (The University of Electro-Communications, priority 2020, dated 2023).

Key:
[1] = biological target: T1, Ppy luciferase (derived from North American firefly Photinus pyralis) (Photinus pyralis, UniProt P08659); assay: Luminescence spectrum measurement of luminescent substrates with Ppy luciferase, ATP-Mg; assay type: biochemical; settings: for peak top wavelength of luminescence spectrum: substrate solution 100 μM, 1 mg/mL Ppy luciferase, 200 μM ATP-Mg, KPB pH 8.0, room temperature, 180 seconds, FIG. 1
T1 construct: purchased Promega Corporation E1701
T1 sequence (P08659 whole entry): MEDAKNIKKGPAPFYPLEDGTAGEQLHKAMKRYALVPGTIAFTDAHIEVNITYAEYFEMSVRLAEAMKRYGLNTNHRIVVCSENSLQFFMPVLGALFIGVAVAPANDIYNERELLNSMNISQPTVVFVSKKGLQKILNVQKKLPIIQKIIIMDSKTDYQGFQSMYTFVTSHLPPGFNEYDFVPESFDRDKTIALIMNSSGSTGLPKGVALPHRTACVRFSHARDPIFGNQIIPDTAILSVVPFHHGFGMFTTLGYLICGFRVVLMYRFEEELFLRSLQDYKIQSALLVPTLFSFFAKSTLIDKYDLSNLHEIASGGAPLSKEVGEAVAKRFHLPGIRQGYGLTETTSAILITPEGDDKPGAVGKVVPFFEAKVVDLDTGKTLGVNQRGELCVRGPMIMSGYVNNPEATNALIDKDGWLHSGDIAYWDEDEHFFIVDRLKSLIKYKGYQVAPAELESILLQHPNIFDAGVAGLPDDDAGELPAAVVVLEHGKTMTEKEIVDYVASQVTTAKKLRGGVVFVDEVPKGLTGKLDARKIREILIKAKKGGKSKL
Method: The luminescent substrates represented by structural formulae (1-1) and (1-2) that were synthesized as described above, a luminescent substrate represented by the following structural formula (b), and natural firefly luciferin (LH2, produced by Wako Pure Chemical Industries, Ltd.) represented by the following structural formula (d) were each used to measure a luminescence spectrum. Note that the luminescent substrate represented by structural formula (b) was prepared in accordance with Example 1 of JP2014-218456A (PTL 2).
A weak emission fluorescence spectrometer AB-1850 produced by ATTO Corporation was used to measure a luminescence spectrum. Each measured spectrum is a spectrum that has been corrected for detector characteristics (data interval 0.25 nm, measurement range 400 nm to 750 nm).
Recombinant luciferase (QuantiLum® (QuantiLum is a registered trademark in Japan, other countries, or both), catalogue no. E1701) produced by Promega Corporation
After mixing 5 μL of KPB solution (pH 8.0, 500 mM), 5 μL of luminescent substrate solution (100 μM), 5 μL of 1 mg/mL Ppy luciferase solution, and 10 μL of 200 μM ATP-Mg solution at room temperature, luminescence spectrum measurement was performed for 180 seconds using the luminescence spectrum measurement apparatus (AB-1850). The luminescence intensity was compared by the peak top value at this time. The results are illustrated in FIG. 1 and FIG. 2.
FIG. 1 is a luminescence spectrum normalized to give a maximum value for luminescence intensity of 1, and FIG. 2 is a luminescence spectrum illustrating luminescence intensity at each wavelength.

firefly luciferase (Luc) = firefly luciferase (Luc) (Photinus pyralis, UniProt P08659); settings: firefly luminescence system; background, PTL 1 to 3; cited from earlier work
Chain of firefly luciferase (Luc) (P08659 whole entry): as above

With CN(C)c1ncc(/C=C/C=C/C2=N[C@@H](C(=O)O)CS2)s1 [structural formula (1-1), (S)-2-((1E,3E)-4-(2-(dimethylamino)thiazol-5-yl)buta-1,3-dien-1-yl)-4,5-dihydrothiazole-4-carboxylic acid] the “luminescence intensity (peak top value) relative to luminescent substrate of structural formula (b)” value ([1]; same conditions, FIGS. 1 and 2) was “approximately four times higher”, the “luminescence intensity (peak top value) relative to natural firefly luciferin” value ([1]; same conditions, FIGS. 1 and 2) was “approximately half” and the “luminescence wavelength compared with luminescent substrate of structural formula (b)” value ([1]; same conditions, FIGS. 1 and 2) was “shorter wavelength”. For the same compound, the “peak top wavelength of luminescence spectrum” value [1] was “approximately 630 nm”.

In the case of CN(C)c1ccc(/C=C/C=C/C2=N[C@@H](C(=O)O)CS2)cc1 [structural formula (a)], the “maximum wavelength of luminescence spectrum / wavelength of emitted light” value (firefly luciferase (Luc)) is given as “roughly 670 nm”.

In the case of CN(C)c1ccc(/C=C/C=C/C2=N[C@@H](C(=O)O)CS2)nc1 [structural formula (c)], the “maximum wavelength of luminescence spectrum / wavelength of emitted light” value (firefly luciferase (Luc)) is listed as “roughly 670 nm”.

In the case of O=C(O)[C@H]1CSC(c2nc3ccc(O)cc3s2)=N1 [natural firefly luciferin, firefly luciferin], the “maximum wavelength of luminescence spectrum / wavelength of emitted light” value (firefly luciferase (Luc)) is given as “approximately 560 nm”.

In the case of CN(C)c1cnc(/C=C/C=C/C2=N[C@@H](C(=O)O)CS2)s1 [structural formula (1-2), (S)-2-((1E,3E)-4-(5-(dimethylamino)thiazol-2-yl)buta-1,3-dien-1-yl)-4,5-dihydrothiazole-4-carboxylic acid], the “luminescence intensity (peak top value) relative to luminescent substrate of structural formula (b)” value ([1]; same conditions, FIGS. 1 and 2) is reported as “approximately four times higher”, the “luminescence intensity (peak top value) relative to natural firefly luciferin” value ([1]; same conditions, FIGS. 1 and 2) is reported as “approximately half” and the “peak top wavelength of luminescence spectrum” value [1] is reported as “approximately 680 nm”.
